How the values were obtained:
[1] = tested on: L. monocytogenes ATCC19111; test: Intracellular accumulation of UDP-MurNAc-pentapeptide; format: cell-based, Listeria monocytogenes; conditions: mycoidesin 1× and 2× MIC, vancomycin 10× MIC; 60 min; chloramphenicol 130 µg/mL pre-incubation 15 min; HPLC, MS
Protocol: (§1) Bacillus cereus CMCC63301 and L. monocytogenes ATCC19111 were grown to an OD600 of 0.3 and incubated with chloramphenicol (130 µg/mL) for 15 min. Mycoidesin (1× and 2× MIC) and vancomycin (10× MIC; positive control) were added and incubated for 60 min. The cells were collected, added to boiling water, treated for 15 min, centrifuged, and the supernatant was lyophilized. The intracellular accumulation of the peptidoglycan precursor UDP-MurNAc-pentapeptide was analyzed using HPLC (Hypersil ODS column) and identified via mass spectrometry ([27]).

[2] = tested on: Bacillus cereus CMCC63301; test: as above; format: cell-based; conditions: mycoidesin 1× and 2× MIC, vancomycin 10× MIC; 60 min; chloramphenicol 130 µg/mL pre-incubation 15 min; HPLC, MS
Protocol: as §1

CN[C@H](CC(C)C)C(=O)N[C@H]1C(=O)N[C@@H](CC(N)=O)C(=O)N[C@H]2C(=O)N[C@H]3C(=O)N[C@H](C(=O)N[C@H](C(=O)O)c4cc(O)cc(O)c4-c4cc3ccc4O)[C@H](O)c3ccc(c(Cl)c3)Oc3cc2cc(c3O[C@@H]2O[C@H](CO)[C@@H](O)[C@H](O)[C@H]2O[C@H]2C[C@](C)(N)[C@H](O)[C@H](C)O2)Oc2ccc(cc2Cl)[C@H]1O [vancomycin, reference compound]
Intracellular accumulation of UDP-MurNAc-pentapeptide [1]: observed
Intracellular accumulation of UDP-MurNAc-pentapeptide [2]: observed

Reference: paper PMC12016531 (Applied and Environmental Microbiology, 2025)
